The results in this text go back to patent US6794396B2, “Substituted pyridines useful for inhibiting cholesteryl ester transfer protein activity” (Pharmacia Corporation, priority 1998, dated 2004).

Test [1] deals with T1, CETP in human plasma or serum pool (Homo sapiens, UniProt P11597).
T1 construct: from tissue; host or cells: pooled human EDTA plasma or serum from healthy volunteers
T1 sequence (P11597 18-493): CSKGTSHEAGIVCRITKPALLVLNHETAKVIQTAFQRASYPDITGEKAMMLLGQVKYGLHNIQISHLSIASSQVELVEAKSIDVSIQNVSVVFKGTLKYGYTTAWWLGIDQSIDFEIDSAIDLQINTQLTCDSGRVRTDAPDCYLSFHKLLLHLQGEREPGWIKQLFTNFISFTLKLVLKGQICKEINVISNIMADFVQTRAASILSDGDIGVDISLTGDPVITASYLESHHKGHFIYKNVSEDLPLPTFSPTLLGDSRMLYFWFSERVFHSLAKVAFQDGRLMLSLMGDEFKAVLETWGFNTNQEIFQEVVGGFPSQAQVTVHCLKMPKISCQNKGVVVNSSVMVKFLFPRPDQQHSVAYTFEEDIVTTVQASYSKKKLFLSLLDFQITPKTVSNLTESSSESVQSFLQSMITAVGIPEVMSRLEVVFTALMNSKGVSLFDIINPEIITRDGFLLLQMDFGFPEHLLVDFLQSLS
Description: Whole serum CETP activity assay (tritiated cholesterol ester). It is filed as biochemical. The settings on record: 4 hours at 37° C. The protocol:
Blood was obtained from healthy volunteers recruited from the personnel of Monsanto Company, Saint Louis, Mo. Blood was either collected in tubes containing EDTA (EDTA plasma pool) or in tubes without EDTA (spun to form the serum pool). The EDTA human plasma pool or human serum pool, previously stored at −20° C., was thawed at room temperature, and centrifuged for 5 minutes to remove any particulate matter. Tritiated HDL, radiolabeled in the cholesteryl ester moiety ([^3H]CE-HDL) as described by Morton and Zilversmit (J. Biol. Chem., 256, 11992-95 (1981) which is incorporated by reference herein), was added to the plasma or serum to a final concentration of (25 μg/ml cholesterol).
Inhibitor compounds were added to the plasma or serum as follows: Equal volumes of the plasma or serum containing the [^3H]CE-HDL (396 μl) were pipetted into micro tubes (Titertube®, Bio-Rad Laboratories, Hercules, Calif.). Compounds, usually dissolved as 20-50 mM stock solutions in DMSO, were serially diluted in DMSO (or an alternative solvent in some cases, such as dimethylformamide or ethanol). Four μl of each of the serial dilutions of inhibitor compounds or DMSO alone were then added to each of the plasma or serum tubes. The tubes were immediately mixed. Triplicate aliquots (100 μl) from each plasma or serum tube were then transferred to wells of 96-well round-bottomed polystyrene microtiter plates (Corning, Corning, N.Y.). Plates were sealed with plastic film and incubated at 37° C. for 4 hours.
Test wells contained plasma or serum with dilutions of inhibitor compounds. Control wells contained plasma or serum with DMSO alone. Blank wells contained plasma or serum with DMSO alone that were left in the micro tubes at 4° C. for the 4 hour incubation and were added to the microtiter wells at the end of the incubation period. VLDL and LDL were precipitated by the addition of 10 μl of precipitating reagent (1% (w/v) Dextran Sulfate (Dextralip50)/0.5M magnesium chloride, pH 7.4) to all wells. The wells were mixed on a plate mixer and then incubated at ambient temperature for 10 min. The plates were then centrifuged at 1000×g for 30 mins at 10° C. The supernatants (50 μl) from each well were then transferred to Picoplate™ 96 plate wells (Packard, Meriden, Conn.) containing […] Microscint™-40 (Packard, Meriden, Conn.). The plates were heat-sealed (TopSeal™-P, Packard, Meriden, Conn.) according to the manufacturers directions and mixed for 30 min.
Radioactivity was measured on a microplate scintillation counter (TopCount, Packard, Meriden, Conn.). […] The maximum percent transfer (in the control wells) was determined using the following equation: [formula]
The percent of control transfer determined in the wells containing inhibitor compounds was determined as follows: [formula]
IC50 values were then calculated from plots of % control versus concentration of inhibitor compound.

The subject of the next test is CETP. Description: Ex vivo CETP activity assay on serum of chronically infused hamsters. It is filed as in vivo, golden Syrian hamster. The text has this:
Chronic inhibition of CETP can be achieved by administration of Dimethyl 5,5′-dithiobis[2-difluoromethyl)-4-(2-methylpropyl)-6-(trifluoromethyl)-3-pyridinecarboxylate] (Compound 181) to hamsters using Alzet pump delivery of Compound 181 into the jugular veins of hamsters. Inhibition of CETP should lead to an increase in HDL cholesterol with a concomitant decrease in LDL cholesterol. This can be determined by filtering serum obtained at different time intervals after initiation of inhibitor infusion and quantitating the amount of cholesterol in the LDL and HDL peaks, respectively. In addition the activity of CETP in the serum can be assessed in an ex vivo CETP activity assay.
Serum cholesterol profiles were determined on pooled sera from each group. Total serum cholesterol and CETP activity were determined on individual serum samples. In hamsters administered Compound 181 chronically, there was a 30% reduction and 26% increase in LDL cholesterol and HDL cholesterol concentrations, respectively, compared to the vehicle group at Day 5. The decrease in LDL and increase in HDL persisted until Day 8 when the Alzet pump was exhausted. […] Therefore, it would appear that for every percent reduction in CETP activity determined by the ex vivo assay, there was a 2-3% decrease in LDL cholesterol or increase in HDL cholesterol concentrations.

Turning to `COC(=O)c1c(C(F)F)nc(C(F)(F)F)c(SSc2c(C(F)(F)F)nc(C(F)F)c(C(=O)OC)c2CC(C)C)c1CC(C)C` [Compound 181, Dimethyl 5,5′-Dithiobis[2-(difluoromethyl)-4-(2-methylpropyl)-6-(trifluoromethyl)-3-pyridinecarboxylate]], the “IC50 whole serum CETP activity” value in test [1] is 16 µM. Moreover, the “average reduction in CETP activity by ex vivo assay” value with CETP (Days 5 and 8) is given as 10%. For the same molecule, the “CETP activity by ex vivo assay” value in the test with CETP (day 12) is “return to vehicle control level”.
